According to patent US8258257B2 (The Regents of the University of California, priority 2008, dated 2012):
Where no end group is shown, it is not given here.

How the values were obtained:
[1] = target: Cldn-4 deletion mutant proteins fused to GST (Mus musculus, UniProt O35054); type: binding
[2] = tested on: Cldn-4 deletion mutant proteins fused to GST; type: binding, Mouse

## SLDAGQYVLVMKANSSYSGNYPYSILFQKF [Cpe30]
[1]
  binding to GST-Ecl2 without any TM domain: detectable binding activity, albeit at much lower affinity
  binding to TM3.Ecl2.TM4: consistent binding
  sensorgram behaviour with full length Cldn-4 fusion: slight decrease in the late stages of association
[2]
  binding to GST cldn-4 fusion proteins: high affinity specific binding
